The values below come from US20230034660A1, “PEPTIDES THAT ENHANCE NMDA RECEPTOR FUNCTION AND USE THEREOF” (University of Pittsburgh - Of the Commonwealth System of …, priority 2019, published 2023).

The subject of the test is NMDAR. In words: NMDAR-mediated currents evoked by uncaging MNI-caged glutamate in cortical cultures, ZX1 potentiation. The class given is cell-based, rat. The note with it: cortical cultures treated with peptide 3 μM overnight; held at −70 mV, Mg2+ free. The procedure:
FIGS. 5A-5C: N2AZ reduces zinc inhibition of NMDAR currents in cortical cultures. (FIG. 5A) Representative image of a neuron in cortical culture filled with Alexa 548 during whole cell recording. Asterisk represents location of laser photolysis of MNI-caged glutamate (40 μM, 1 millisecond pulse) used to evoke EPSCs. (FIG. 5B) Sample traces of NMDAR EPSCs, averaged over 5 sweeps, evoked by photolysis of MNI-caged glutamate in cortical cultures held at −70 mV in Mg^2 + free solution. […] Bar graphs represent the average potentiation of responses 5 minutes after ZX1 application. Errors bars indicate mean±SEM. […]
Whole-cell recordings from cultured cortical neurons were obtained with glass micropipettes (3-6 MΩ) containing 140 mM CsF, 10 mM CsEGTA, 1 mM CaCl2, 10 mM HEPES, pH=7,2, 295 mOsm. […] Using ephus (Suter et al. 2010) and a Multiclamp 700B amplifier (Molecular Devices), NMDAR excitatory postsynaptic currents (EPSCs) were recorded in voltage clamp (held at −70 mV) in the presence of TTX (300 nM to prevent synaptic activity), DNQX (20 μM, AMPA and kainate receptor antagonist), and 4-Methoxy-7-nitroindolinyl (MNI)-caged glutamate (40 μM). […] The ZX1-mediated potentiation for each cell was calculated as the average percent increase in responses following application of the metal chelator across these 4 uncaging locations. […]

Consider SNLSDSYDR [scN2AZ, reference compound], for which the “ZX1 potentiation of NMDAR-mediated currents above baseline” value was found to be 37.40±11.63%.
NDSYLRSSL [Peptide N2AZ]: the “ZX1 potentiation of NMDAR-mediated currents above baseline” value was determined as 1.34±3.48%.
